Consider two molecules from US20240099989A1, “AGENT FOR PREVENTING OR IMPROVING PERIPHERAL NEUROPATHY” (KINKI UNIVERSITY, priority 2021, published 2024).

Entries after “also recorded” stand apart in the source; their conditions may differ.

Data set [1] relates to Peripheral Neuropathy in a Mouse Caused by Oxaliplatin. The data set is described as follows: Cold plate test (10° C.), peripheral neuropathy caused by oxaliplatin. It counts as in vivo, Balb/c mice. The settings on record: group receiving 6 mg/kg oxaliplatin only (i.p. Day 0, 7, 14), vs control group. The procedure:
The preventive action of xylitol on hyperesthesia that occurs when an anticancer drug, oxaliplatin, was administered was examined. […] Xylitol was orally administered to a mouse simultaneously with the administration of oxaliplatin, and the following tests (cold plate test and von Frey test) were performed. Oxaliplatin is an anticancer drug classified as a platinum-containing drug. In all of the examples described below, a dosage (administered amount) (mg/kg) refers to the weight of the administered substance per kg body weight of the mouse.
Six to seven-week-old female Balb/c mice were used for the tests. All the mice were acclimated for seven days after arrival. Then, the mice were grouped into the following four groups: a control group, a group receiving oxaliplatin, and two groups receiving oxaliplatin and two different doses of xylitol (groups receiving oxaliplatin+xylitol). Each group consisted of nine mice.
On Day 8 of acclimation, the mice in the group receiving oxaliplatin and the groups receiving oxaliplatin+xylitol were intraperitoneally administered with oxaliplatin at a dose of 6 mg/kg. This day was designated as Day 0 of administration. Thereafter, these mice were intraperitoneally administered with oxaliplatin at a daily dose of 6 mg/kg on Day 7 and Day 14.
The mice in a first group receiving oxaliplatin and xylitol were orally administered with xylitol at a dose of 1 mg/kg daily from Day 0. The mice in a second group receiving oxaliplatin and xylitol were orally administered with xylitol at a dose of 5 mg/kg daily from Day 0.
A cold plate test was performed to examine the effect of xylitol on paresthesia that is caused by a low temperature stimulus. The mice in the four groups described in (1) of the present example (Example 1) were placed on a cold plate set at 10° C., and withdrawal response time (latent time) was measured. It is presumed that a shorter latent time reflects a greater degree of shunning the low temperature stimulus by the cold plate.
Six to seven-week-old female Balb/c mice were used for the tests as with Example 1. All the mice were acclimated for seven days after arrival. Then, the mice were grouped into the following five groups: a control group, a group receiving only oxaliplatin, and three groups receiving oxaliplatin and three different doses of xylitol. Each group consisted of seven mice.
On Day 8 of acclimation, the mice in the groups other than the control group were intraperitoneally administered with oxaliplatin at a dose of 6 mg/kg. This day was designated as the first day of the administration (Day 0). Thereafter, these mice were intraperitoneally administered with oxaliplatin at the same dose on Day 7 and Day 14 for a total of 3 doses.
The mice in a first group receiving oxaliplatin+xylitol were orally administered with xylitol at a dose of 5 mg/kg daily from Day 6 of administration. The mice in a second group receiving oxaliplatin+xylitol were orally administered with xylitol at a dose of 25 mg/kg daily from Day 6 of administration. The mice in a third group receiving oxaliplatin+xylitol were orally administered with xylitol at a dose of 100 mg/kg daily from Day 6 of administration. In this context, “Day 6 of administration” means that the number of days after administration is 6. The same applies hereinafter.
A test was performed on the mice in the five groups described in (1) of the present example (Example 2) to examine the effect of xylitol on paresthesia that is caused by a low temperature stimulus. The mice in respective groups were placed on a cold plate set at 10° C., and withdrawal response time (latent time) was measured. It is presumed that a shorter latent time reflects a greater degree of shunning the low temperature stimulus by the cold plate.
Six to seven-week-old female Balb/c mice were used for the tests as with Example 1. All the mice were acclimated for seven days after arrival. […]

The test system is the same in data set [2]. Description: Von Frey test (0.16 g filament), peripheral neuropathy caused by oxaliplatin. The format is in vivo, Balb/c mice. The note with it: group receiving 6 mg/kg oxaliplatin only (i.p. Day 0, 7, 14), vs control group. An excerpt: Six to seven-week-old female Balb/c mice were used for the tests as with Example 1. All the mice were acclimated for seven days after arrival. Then, the mice were grouped into the following four groups: a control group, a group receiving oxaliplatin, a group receiving D-threitol, and a group receiving oxaliplatin and D-threitol (a group receiving oxaliplatin+D-threitol). Each group consisted of five mice.
On Day 8 of acclimation, the mice in the group receiving oxaliplatin and the group receiving oxaliplatin+D-threitol were intraperitoneally administered with oxaliplatin at a dose of 6 mg/kg. This day was designated as the first day of the administration (Day 0). Thereafter, these mice were intraperitoneally administered with oxaliplatin at a daily dose of 6 mg/kg on Day 7 and Day 14.
The mice in the group receiving D-threitol and the group receiving oxaliplatin+D-threitol were orally administered with D-threitol at a dose of 5 mg/kg daily from Day 0.
The mice in the four groups described in (1) of the present example (Example 3) were placed in a cage, and the avoidance response frequency (score) was measured by pressing a filament with a bending force of 0.16 g against the back of the hind paw.
On Day 8 of acclimation, the mice in the group receiving oxaliplatin and the group receiving oxaliplatin+D-threitol were intraperitoneally administered with oxaliplatin at a dose of 6 mg/kg. This day was designated as the first day of the administration (Day 0). Thereafter, these mice were intraperitoneally administered with oxaliplatin at the same dose on Day 7 and Day 14 for a total of 3 doses.
The mice in the group receiving 100 mg/kg D-threitol were orally administered with D-threitol at a dose of 100 mg/kg daily from Day 0. The mice in the group receiving oxaliplatin+100 mg/kg D-threitol were orally administered with D-threitol at a dose of 100 mg/kg daily from Day 6 of administration.
For the mice in the four groups described in (1) of the present example (Example 4), the avoidance response frequency (score) was measured by pressing a filament with a bending force of 0.16 g against the back of the hind paw.
Six to seven-week-old female Balb/c mice were used for the tests as with Example 1. All the mice were acclimated for seven days after arrival. Then, the mice were grouped into the following four groups: a control group, a group receiving oxaliplatin, a group receiving L-talitol, and a group receiving oxaliplatin and L-talitol (a group receiving oxaliplatin+L-talitol). Each group consisted of five mice. […]
The mice in the four groups described in (1) of the present example (Example 5) were placed in a cage, and the avoidance response frequency (score) was measured by pressing a filament with a bending force of 0.16 g against the back of the hind paw. […]

Data set [3] deals with Diabetic Peripheral Neuropathy in a Mouse Induced by Streptozotocin. Description: Von Frey test (0.16 g filament), diabetic peripheral neuropathy induced by streptozotocin. The note with it: group receiving streptozotocin only (200 mg/kg, Day 0 only), vs control group. It counts as in vivo, C57BL/6J mice. As to the method:
On Day 8 of acclimation, the mice in the group receiving streptozotocin and the group receiving streptozotocin+1 mg/kg xylitol were administered with streptozotocin at a dose of 200 mg/kg. A massive dose of streptozotocin destroys pancreatic cells in the mice. As a result, insulin is no longer secreted, and thus, diabetes can be developed in the mice. This day was designated as the first day of the administration (Day 0). Note that streptozotocin was administered only on the first day of administration. […]
(§1) Six to seven-week-old male C57BL/6J mice were used for the tests as with Example 7. All the mice were acclimated for seven days after arrival. Then, the mice were grouped into the following four groups: a control group, a group receiving streptozotocin, a group receiving 1 mg/kg xylitol, and a group receiving streptozotocin+1 mg/kg xylitol. Each group consisted of nine mice.
(§2) The mice in the group receiving 1 mg/kg xylitol were orally administered with xylitol at a dose of 1 mg/kg daily from Day 0. The mice in the group receiving streptozotocin+1 mg/kg xylitol were orally administered with xylitol at a dose of 1 mg/kg daily from Day 21 of administration.
The mice in the four groups described in (1) of the present example (Example 8) were placed in a cage, and the avoidance response frequency (score) was measured by pressing a filament with a bending force of 0.16 g against the back of the hind paw. […]
(§3) On Day 8 of acclimation, the mice in the group receiving streptozotocin and the group receiving streptozotocin+5 mg/kg D-threitol were administered with streptozotocin at a dose of 200 mg/kg. A massive dose of streptozotocin destroys pancreatic cells in the mice. As a result, insulin is no longer secreted, and thus, diabetes can be developed in the mice. This day was designated as the first day of the administration (Day 0). Note that streptozotocin was administered only on the first day of administration.
(§4) The mice in the group receiving 5 mg/kg D-threitol and the group receiving streptozotocin+5 mg/kg D-threitol were orally administered with D-threitol at a dose of 5 mg/kg daily from Day 0. […]
The mice in the group receiving 5 mg/kg D-threitol were orally administered with D-threitol at a dose of 5 mg/kg daily from Day 0. […]
The mice in the four groups described in (1) of the present example (Example 10) were placed in a cage, and the avoidance response frequency (score) was measured by pressing a filament with a bending force of 0.16 g against the back of the hind paw. […]
The mice in the four groups described in (1) of the present example (Example 11) were placed in a cage, and the avoidance response frequency (score) was measured by pressing a filament with a bending force of 0.16 g against the back of the hind paw. […]

Data set [4] shares this test system. The data set is described as follows: Cold plate test (4° C.), diabetic peripheral neuropathy induced by streptozotocin. The note with it: group receiving streptozotocin only (200 mg/kg, Day 0 only), vs control group. The format is in vivo, C57BL/6J mice. As to the method:
as §1, §2
A cold plate test was performed to examine the effect due to xylitol on paresthesia that is caused by a low temperature stimulus. The mice in the four groups described in (1) of the present example (Example 8) were placed on a cold plate set at 4° C., and withdrawal response time (latent time) was measured. It is presumed that a shorter withdrawal response time (latent time) reflects a greater degree of shunning the low temperature stimulus by the cold plate. […]
as §3, §4
The mice in the group receiving 5 mg/kg D-threitol were orally administered with D-threitol at a dose of 5 mg/kg daily from Day 0. The mice in the group receiving streptozotocin+5 mg/kg D-threitol were orally administered with D-threitol at a dose of 5 mg/kg daily from Day 21 of administration.
A cold plate test was performed to examine the effect of D-threitol on paresthesia that is caused by a low temperature stimulus. The mice in the four groups described in (1) of the present example (Example 10) were placed on a cold plate set at 4° C., and withdrawal response time (latent time) was measured. […]
A cold plate test was performed to examine the effect of L-talitol on paresthesia that is caused by a low temperature stimulus. The mice in the four groups described in (1) of the present example (Example 11) were placed on a cold plate set at 4° C., and withdrawal response time (latent time) was measured. […]

As for `O=C1[O][Pt]2([NH][C@@H]3CCCC[C@H]3[NH]2)[O]C1=O` [oxaliplatin, reference compound], in data set [1], the “withdrawal response time (latent time)” value was “reduced from Day 3 to Day 6 of the test; also recorded: uniform reduction in the withdrawal response time”. Further, the avoidance response score entry in data set [2] is on record as “remarkable increase in the avoidance response score”.

With `CN(N=O)C(=O)N[C@H]1C(O)O[C@H](CO)[C@@H](O)[C@@H]1O` (mixture of isomers) [streptozotocin, reference compound], the avoidance response score result in data set [3] is “increased from Day 7”. The “withdrawal response time (latent time)” value in data set [4] is listed as “reduced from Day 7”.
